The values that follow come from US20110028503A1, “COMPOSITIONS AND METHODS FOR INHIBITION OF THE JAK PATHWAY” (RIGEL PHARMACEUTICALS, INC., priority 2009, published 2011).

Holding throughout (format): cell-based
Assay [1] has as its system human Ramos B cells stimulated with human IL-4 (JAK1 and JAK3 kinases, CD23 upregulation). As to the kind of experiment: Ramos B-cell line stimulated with IL-4 (CD23 upregulation, FACS). Conditions: IL-4 50 units/mL, 20-24 hours, anti-CD23-PE FACS, read-out: Example 3 IC50 (Ramos B-cell line stimulated with IL-4, CD23). Here is the method: One means of assaying for JAK inhibition is detection of the effect of compounds I and II on the upregulation of downstream gene products. In the Ramos/IL4 assay, B-cells are stimulated with the cytokine Interleukin-4 (IL-4) leading to the activation of the JAK/Stat pathway through phosphorylation of the JAK family kinases, JAK1 and JAK3, which in turn phosphorylate and activate the transcription factor Stat-6. […] Twenty to 24 hours post stimulation, cells are stained for upregulation of CD23 and analyzed using flow cytometry (FACS). […] An exemplary assay of this type is described in greater detail below. B-cells stimulated with cytokine Interleukin-4 (IL-4) activate the JAK/Stat pathway through phosphorylation of the JAK family kinases, JAK-1 and JAK-3, which in turn phosphorylate and activate the transcription factor Stat-6. […] To study the effect of inhibitors on the JAK family kinases, human Ramos B cells are stimulated with human IL-4. The Ramos B-cell line was acquired from [NT] No. CRL-1596). The cells were cultured in RPMI 1640 (Cellgro, MediaTech, Inc., Herndon, Va., Cat No. 10-040-CM) with 10% fetal bovine serum (FBS), heat inactivated (JRH Biosciences, Inc, Lenexa, Kans., Cat No. 12106-500M) according to ATCC propagation protocol. […] Cells were then spun down and stained with anti-CD23-PE(BD Pharmingen, San Diego, Calif., Cat No. 555711) and analyzed by FACS. […]

Assay [2] has as its system primary human T-cells (IL-2 stimulated proliferation; JAK1 and JAK3). Briefly: Primary human T-cell proliferation assay stimulated with IL-2. Conditions: IL-2, 72 hours, CellTiter-Glo ATP readout, read-out: Example 4 IC50 (primary human T-cell proliferation stimulated with IL-2). An excerpt:
In this assay, primary human T-cells derived from peripheral blood and pre-activated through stimulation of the T-cell receptor and CD28, proliferate in culture in response to the cytokine Interleukin-2 (IL-2). This proliferative response is dependent on the activation of JAK1 and JAK3 tyrosine kinases, which phosphorylate and activate the transcription factor Stat-5. […] A reduction in cell proliferation compared to control conditions is indicative of inhibition of the JAK kinase pathway. An exemplary assay of this type is described in greater detail below.
Primary human T-cells derived from peripheral blood and pre-activated through stimulation of the T-cell receptor and CD28, proliferate in vitro in response to the cytokine Interleukin-2 (IL-2). This proliferative response is dependent on the activation of JAK-1 and JAK-3 tyrosine kinases, which phosphorylate and activate the transcription factor Stat-5.
Human primary T cells were prepared as follows. […] The lymphocytes at the serum: ficoll interface were recovered and washed twice with 5 volumes of PBS. […]
Proliferation was measured using CellTiter-Glo® Luminescent Cell Viability Assay (Promega), which determines the number of viable cells in culture based on quantitation of the ATP present, as an indicator of metabolically active cells. […]
Background: Cellular ATP, detected with luciferase, serves as a proxy for viable cell number.

Assay [3] concerns U937 human monocytic cells stimulated with IFNγ (ICAM-1 up-regulation, JAK/Stat pathway). As to the kind of experiment: U937 IFNγ ICAM1 FACS assay. To be noted: U-937, IFNγ 10 ng/mL, 18-24 hours, ICAM-1 FACS, read-out: Example 6 IC50 (U937 IFNγ ICAM1 FACS assay). Here is the method:
U937 human monocytic cells up-regulate ICAM-1 (CD54) surface expression in response to a variety of different stimuli. Therefore, using ICAM-1 expression as readout, compound effects on different signaling pathways can be assessed in the same cell type. IFNγ up-regulates ICAM-1 through activation of the JAK/Stat pathway. In this example, the up-regulation of ICAM-1 by IFNγ was assessed.
U937 cells were grown in 10% RPMI. The cells were then plated at a concentration of 100,000 cells per 160 μL in 96 well flat bottom plates. […] Then 4 μL of test compound was transferred to 76 μL of 10% RPMI resulting in a 10× solution (100 μM test compound, 5% DMSO). For control wells, 4 μL of DMSO was diluted into 76 μL 10% RPMI.
The assay was performed in duplicate with 8 points (8 3-fold dilution concentrations from […]) and with 4 wells of DMSO only (control wells) under stimulated conditions and 4 wells of DMSO only under unstimulated conditions.
The diluted compound plate was mixed 2× using a multimek (Beckman Coulter of Brea, Calif.) and then 20 μL of the diluted compounds was transferred to the 96 well plate containing 160 μL of cells, which were then mixed again twice at low speeds. The cells and compounds were then pre-incubated for 30 minutes at 37° C. with 5% CO2. […]
Both % live cells and ICAM-1 expression was analyzed. […]

In the case of `C#CCOc1ccc(Nc2nc(Nc3ccc(C)c(S(N)(=O)=O)c3)ncc2F)cc1` [Compound I, N2-(3-Aminosulfonyl-4-methylphenyl)-5-fluoro-N4-[4-(prop-2-ynyloxy)phenyl]-2,4-pyrimidinediamine], the figures for the IC50 in assay [1], in assay [2] and in assay [3] were 0.056 µM, 0.181 µM and 0.565 µM, respectively.
